Source: paper PMC10887214 (Biomedicines, 2024)

Experiments:
[1] = system: C57BL/6J mice; assay: Open Field (OF); assay type: in vivo, mouse; settings: i.p., WIN 0.5 mg/kg
Description: (§1) Animal housing. Forty-eight Male C57BL/6J mice were purchased from Janvier Labs (Le Genest-Saint-Isle, France) and were time-specifically housed in a 12 h light-dark cycle (lights on at 7 am), with ad libitum water and food in conditioned rooms (22 °C, humidity ~60%).
(§2) Behavior assays. All mice were subjected to a behavioral test battery that consisted of several general performance tasks of locomotor activity, exploratory and anxiety-like behavior, and learning and memory. Mice were divided into four groups: Vehicle, OS (2 mg/kg), WIN55 (0.5 mg/kg), or OS + WIN. Each group consisted of 7–14 mice that received two i.p injections before each test, with a 10 min interval between each injection. Veh + Veh were injected with PBS. Veh + WIN were injected with PBS and WIN55. Veh + OS were injected with PBS and OS. OS + WIN were injected with OS and WIN55. PBS was used as vehicle as it was used for dilution of drugs. Tests were performed in the order described below after 10 min of the last injection, with a 24 h interval between each test.
Open Field (OF): One day after the cage activity test, mice were tested in the OF paradigm. The OF aimed to test the OS, WIN, and OS + WIN effect on animal locomotion and exploratory behavior. Animals were placed in the test room one hour before starting the test. For the OF, animals were placed in a plexiglass box (60 × 60 × 60 cm) divided into three zones (center, periphery, and corners) for 10 min and left free to explore. Total distance and time in zones were counted. Here, more time in the center meant an anxiolytic effect, and a higher distance walking meant an increase in locomotor activity. For this test, we used Veh (n = 8), OS (n = 10), WIN (n = 7), OS + WIN (n = 8).

[2] = system: C57BL/6J mice; assay: Home cage activity test; assay type: in vivo, mouse; settings: i.p., OS 2 mg/kg, WIN 0.5 mg/kg, 21 h
Description: as §1, §2
Cage activity assessment: At P60, animals were moved to the cage activity room for one hour before injections for habituation.. The cage activity assessment consists of placing the mice in a transparent box which is placed between three infrared sensors (two on the cage’s side and one in its front) that count how many times the mice cross the infrared beams. The times of beams crossed in each 30 min were counted over a period of 24 h and used as a locomotor activity measurement. In addition, we also compared the total number of beams crossed during the day and night period. For this test, we used Veh (n = 10), OS (n = 9), WIN (n = 11), OS + WIN (n = 8).

[3] = system: C57BL/6J mice; assay: Morris Water Maze (MWM); assay type: in vivo, mouse; settings: i.p., WIN 0.5 mg/kg
Description: as §1, §2
Morris Water Maze (MWM): MWM [32] was used to assess the effects of OS, WIN, and OS + WIN in memory one day after the EPM test. MWM is a gold standard test to assess learning and memory consisting of 10 days of training and two probe trials in a pool with water at a temperature of 26 °C, with one submersed platform invisible to mice. Each mouse could try to find the platform for 100 s, four times per day, with an inter-trial interval of 15–30 min. In each trial, animals were released randomly from each of the four starting positions. This protocol of training was repeated for ten days (training sessions). The platform was removed on the 6th and 11th days, and the animals were left free to swim for 100 s (probe trials). Right after the first probe trial (day 6), animals were trained again with the platform at the same place. During the training sessions, the mean latency to find the platform for the session was calculated for each animal as the average of the four trials of the day. During the probe trials, the pool was divided into four equal virtual quadrants, and the time spent in the target quadrant (TQ) (i.e., the quadrant where the platform was located during the training sessions) was assessed as a measure of memory retention. For this test, we used Veh (n = 9), OS (n = 8), WIN (n = 8), OS + WIN (n = 14).

[4] = system: chimeric CB1/2 receptor; assay: Two-electrode voltage-clamp, chimeric CB1/2-GIRK1/GIRK2-RGS4 coupling system expressed in oocytes; settings: WIN55,212-2 concentration–response

**Q.** `Cc1c(C(=O)c2cccc3ccccc23)c2cccc3c2n1[C@H](CN1CCOCC1)CO3` [WIN55,212-2, reference compound] was tested. Which “Total distance walked in open field (locomotion)” value ([1]; OS 2 mg/kg, 10 min test) did it give?
**A.** neither OS nor WIN affected locomotion

**Q.** What about the “Time spent in the periphery of open field compared to the control” value [1] of the same compound?
**A.** spent less time in the periphery

**Q.** And the “Cage activity (beam crossings) 2 h after the beginning of night phase” value [2]?
**A.** did not change the activity

**Q.** What about the “Time to find the platform in training sessions vs control” value ([3]; OS 2 mg/kg, days 3, 4, 5, 6 and 8) of the same compound?
**A.** performed significantly worse than the control

**Q.** What about the “Time spent in the target quadrant (TQ), first probe trial” value [3] of the same compound?
**A.** ~ 25%

**Q.** And the Receptor activation [4]?
**A.** activated by WIN55,212-2 in a concentration-dependent manner
